# Measured values from patent publication US20230146455A1, “TREATMENT OF INFLAMMATORY DISEASES WITH PEPTIDES AND PHARMACEUTICAL COMPOSITIONS” (Yuyu Pharma, Inc., priority 2020, published 2023).
# Values joined by “and” are separate entries in the source; they are usually repeats but may differ in a detail not shown here. Equal entries are not always repeated. Where a SMILES comes first, the peptide text is derived from it. [ ]: non-standard residue; d: D form. Hyp = O=C(O)[C@@H]1C[C@@H](O)CN1
# Tested on: MMP-9
# Experiment: Example 9 Luminex, LPS hPBMCs: MMP-9
# Type: cell-based, human
# Protocol: Treatment Human PBMCs were pretreated with YY-101, YDE-011 and YDE-043 or reference compound; Xiidra® at various concentration (ranging from 1 nM to 100 uM) for 2 h before stimulation. An equal volume of 0.5% DMSO was used as a vehicle control. Then, the cells were treated with LPS at 5 ug/ml. The supernatants from treated cells were harvested at 24 h and placed in a 96 well for Luminex cytokine & chemokine profiling using a Luminex 200 multiplex assay (Luminex; R&D system, USA).
# The main study arm with triplicate wells per group in a 24-well plate: • 1. Blank • 2. PBMC: 0.5% DMSO • 3. PBMC+LPS (5 ug/ml) • 4. PBMC+YY-101 100 uM • 5. PBMC+YY-101 10 uM • 6. PBMC+YY-101 1 uM • 7. PBMC+YY-101 0.1 uM • 8. PBMC+YY-101 0.01 uM • 9. PBMC+LPS (5 ug/ml)+Xiidra®100 uM • 10. PBMC+LPS (5 ug/ml)+Xiidra® 10 uM • 11. PBMC+LPS (5 ug/ml)+Xiidra® 1 uM • 12. PBMC+LPS (5 ug/ml)+Xiidra®0.1 uM • 13. PBMC+LPS (5 ug/ml)+Xiidra®0.01 uM • 14. PBMC+LPS (5 ug/ml)+Xiidra®0.001 uM • 15. PBMC+LPS (5 ug/ml)+YY-101 100 uM • 16. PBMC+LPS (5 ug/ml)+YY-101 10 uM • 17. PBMC+LPS (5 ug/ml)+YY-101 1 uM • 18. PBMC+LPS (5 ug/ml)+YY-101 0.1 uM • 19. PBMC+LPS (5 ug/ml)+YY-101 0.01 uM • 20. PBMC+LPS (5 ug/ml)+YY-101 0.001 uM • 21. PBMC+LPS (5 ug/ml)+YDE-011 100 uM • 22. PBMC+LPS (5 ug/ml)+YDE-011 10 uM • 23. PBMC+LPS (5 ug/ml)+YDE-011 1 uM • 24. PBMC+LPS (5 ug/ml)+YDE-011 0.1 uM • 25. PBMC+LPS (5 ug/ml)+YDE-011 0.01 uM • 26. PBMC+LPS (5 ug/ml)+YDE-011 0.001 uM • 27. PBMC+LPS (5 ug/ml)+YDE-043 100 uM • 28. PBMC+LPS (5 ug/ml)+YDE-043 10 uM • 29. PBMC+LPS (5 ug/ml)+YDE-043 1 uM • 30. PBMC+LPS (5 ug/ml)+YDE-043 0.1 uM • 31. PBMC+LPS (5 ug/ml)+YDE-043 0.01 uM • 32. PBMC+LPS (5 ug/ml)+YDE-043 0.001 uM
# Multiplex assay was used to measure 30 cytokines and chemokines. The 1:2, 1:10 and 1:200 diluted cell supernatant and serial dilution of the standard were dispensed into a 96 well plate at 50 ul/well. Then, the pre-mixed cocktail of antibody-coated magnetic beads was dispensed at 50 ul/well and incubated at room temperature for 2 h in a horizontal orbital microplate shaker at 800±500 rpm. The beads were washed using a magnetic device to prevent loss. The biotin-antibody was dispensed in 50 ul of each well and incubated at room temperature for 1 h in a shaker at 800±500 rpm. After washing, streptavidin-PE was added at 50 ul/well and incubated at room temperature for 30 min in a shaker under the same conditions. Finally, after washing, wash buffer (100 ul/well) was added to the plate and incubated in a shaker for 2 min. The Luminex™ 200 setting were set according to the manufacturer's protocol. The data was calculated with a standard five-parameter logistic nonlinear regression analysis of the data (xPonent software 4.2, USA). The levels of cytokine/chemokine are normalized to the live cell counts (1×10^5 cells/mL) and presented as concentrations per mL (pg/mL or ng/mL).
# [1] = PBMC + 0.01 uM, no LPS, single replicates
# [2] = PBMC + 0.1 uM, no LPS, single replicates
# [3] = PBMC + 1 uM, no LPS, single replicates
# [4] = PBMC + 10 uM, no LPS, single replicates
# [5] = PBMC + 100 uM, no LPS, single replicates
# [6] = PBMC + LPS(5 ug/ml) + 0.001 uM, Mean
# [7] = PBMC + LPS(5 ug/ml) + 0.001 uM, single replicates
# [8] = PBMC + LPS(5 ug/ml) + 0.01 uM, Mean
# [9] = PBMC + LPS(5 ug/ml) + 0.01 uM, single replicates
# [10] = PBMC + LPS(5 ug/ml) + 0.1 uM, Mean
# [11] = PBMC + LPS(5 ug/ml) + 0.1 uM, single replicates
# [12] = PBMC + LPS(5 ug/ml) + 1 uM, Mean
# [13] = PBMC + LPS(5 ug/ml) + 1 uM, single replicates
# [14] = PBMC + LPS(5 ug/ml) + 10 uM, Mean
# [15] = PBMC + LPS(5 ug/ml) + 10 uM, single replicates
# [16] = PBMC + LPS(5 ug/ml) + 100 uM, Mean
# [17] = PBMC + LPS(5 ug/ml) + 100 uM, single replicates
compound,measurement,setting,value
CC(C)C[C@H](NC(=O)CNC(=O)[C@H](CC(=O)O)NC(=O)[C@H](CCC(N)=O)NC(=O)CNC(=O)[C@@H]1C[C@@H](O)CN1)C(=O)N[C@@H](C)C(=O)NCC(=O)N1CCC[C@H]1C(=O)N[C@@H](CCCCN)C(=O)O [YY-101] (H-[Hyp]GQDGLAGPK-OH; N-terminus and C-terminus assumed),MMP-9 Concentration,"PBMC + 0.01 uM, no LPS, Mean",6947.7 pg/mL
same,MMP-9 conc/live cell,"PBMC + 0.01 uM, no LPS, Mean",1395.6 pg/10^5
same,MMP-9 Concentration,[1],6464.0 pg/mL and 7431.3 pg/mL
same,MMP-9 conc/live cell,[1],1243.1 pg/10^5 and 1548.2 pg/10^5
same,MMP-9 Concentration,"PBMC + 0.1 uM, no LPS, Mean",7041.0 pg/mL
same,MMP-9 conc/live cell,"PBMC + 0.1 uM, no LPS, Mean",1365.4 pg/10^5
same,MMP-9 Concentration,[2],5521.9 pg/mL and 8560.2 pg/mL
same,MMP-9 conc/live cell,[2],1255.0 pg/10^5 and 1475.9 pg/10^5
same,MMP-9 Concentration,"PBMC + 1 uM, no LPS, Mean",7016.7 pg/mL
same,MMP-9 conc/live cell,"PBMC + 1 uM, no LPS, Mean",1275.8 pg/10^5
same,MMP-9 Concentration,[3],6666.8 pg/mL and 7366.6 pg/mL
same,MMP-9 conc/live cell,[3],1212.2 pg/10^5 and 1339.4 pg/10^5
same,MMP-9 Concentration,"PBMC + 10 uM, no LPS, Mean",10460.4 pg/mL
same,MMP-9 conc/live cell,"PBMC + 10 uM, no LPS, Mean",1662.8 pg/10^5
same,MMP-9 Concentration,[4],13551.9 pg/mL and 7369.0 pg/mL
same,MMP-9 conc/live cell,[4],2117.5 pg/10^5 and 1208.0 pg/10^5
same,MMP-9 Concentration,"PBMC + 100 uM, no LPS, Mean",5317.6 pg/mL
same,MMP-9 conc/live cell,"PBMC + 100 uM, no LPS, Mean",799.8 pg/10^5
same,MMP-9 Concentration,[5],6000.1 pg/mL and 4635.0 pg/mL
same,MMP-9 conc/live cell,[5],937.5 pg/10^5 and 662.1 pg/10^5
same,MMP-9 Concentration,[6],182.3 pg/mL
same,MMP-9 conc/live cell,[6],28.3 pg/10^5
same,MMP-9 Concentration,[7],152.0 pg/mL and 155.2 pg/mL and 239.8 pg/mL
same,MMP-9 conc/live cell,[7],26.7 pg/10^5 and 21.9 pg/10^5 and 36.3 pg/10^5
same,MMP-9 Concentration,[8],150.9 pg/mL
same,MMP-9 conc/live cell,[8],24.5 pg/10^5
same,MMP-9 Concentration,[9],161.5 pg/mL and 155.2 pg/mL and 135.8 pg/mL
same,MMP-9 conc/live cell,[9],25.2 pg/10^5 and 25.9 pg/10^5 and 22.3 pg/10^5
same,MMP-9 Concentration,[10],114.6 pg/mL
same,MMP-9 conc/live cell,[10],19.7 pg/10^5
same,MMP-9 Concentration,[11],102.0 pg/mL and 119.2 pg/mL and 122.6 pg/mL
same,MMP-9 conc/live cell,[11],16.5 pg/10^5 and 22.9 pg/10^5 and 19.8 pg/10^5
same,MMP-9 Concentration,[12],167.7 pg/mL
same,MMP-9 conc/live cell,[12],25.8 pg/10^5
same,MMP-9 Concentration,[13],155.2 pg/mL and 161.5 pg/mL and 186.3 pg/mL
same,MMP-9 conc/live cell,[13],24.6 pg/10^5 and 22.8 pg/10^5 and 30.1 pg/10^5
same,MMP-9 Concentration,[14],157.2 pg/mL
same,MMP-9 conc/live cell,[14],24.0 pg/10^5
same,MMP-9 Concentration,[15],161.5 pg/mL and 167.8 pg/mL and 142.4 pg/mL
same,MMP-9 conc/live cell,[15],26.9 pg/10^5 and 26.2 pg/10^5 and 18.7 pg/10^5
same,MMP-9 Concentration,[16],96.1 pg/mL
same,MMP-9 conc/live cell,[16],16.5 pg/10^5
same,MMP-9 Concentration,[17],98.5 pg/mL and 102.0 pg/mL and 87.7 pg/mL
same,MMP-9 conc/live cell,[17],15.6 pg/10^5 and 16.5 pg/10^5 and 17.5 pg/10^5
